According to patent publication US9150529B2, “Piperazine derivatives, methods for preparing same, and uses thereof in the treatment of insulin resistance” (METABOLYS, priority 2011, dated 2015):

Test system: db/db mouse
Assay: Antidiabetic activity in db/db mouse (drop in glycaemia after oral administration)
Assay type: in vivo
Details: 8 weeks old, 200 mg/kg per os, blood from tail, glucometer; for Drop in glycaemia (in % of the initial value) After 1 hour: 1 hour after administration; for Drop in glycaemia (in % of the initial value) After 2 hours: 2 hours after administration
Protocol: The antidiabetic activity of the compounds of formula (I) orally on a type 2 diabetes animal model, the db/db mouse, was tested. Diabetic mice are used at the age of 8 weeks; they then have very high hyperglycaemia. The animals are stabilised at a minimum for one week after reception and up to the day of experimentation in an animal house at a temperature regulated at 21°-22° C. and subjected to a fixed cycle of light (from 7 a.m. to 7 p.m.) and darkness (from 7 p.m. to 7 a.m.). Their food consisted of a maintenance regime; water and food were supplied “ad libitum”. The mice are treated orally with the product to be tested (200 mg/kg per os) in suspension in a mixture of water and methyl cellulose or the vehicle (mixture of water and methyl cellulose) in the morning of the day of the experimentation. Just before the administration of the product and one and two hours after the administration of the product, a blood sample (one drop of blood) is taken following a small incision in the tail for determining glycaemia. This glycaemia is measured by means of a glucometer (Lifescan OneTouch Ultra, LifeScan, Johnson-Johnson Company) and OneTouchUltra glycaemia measurement strips.

Structure (SMILES): COc1ccc(N2CCN(CCOc3ccc(C(=O)CCC(=O)O)cc3)CC2)cc1 [Compound 2]
- Drop in glycaemia (in % of the initial value) After 1 hour: 7%
- Drop in glycaemia (in % of the initial value) After 2 hours: 12%

Structure (SMILES): O=C(O)CCC(=O)c1ccc(OCCN2CCN(c3ccccc3F)CC2)cc1 [Compound 3]
- Drop in glycaemia (in % of the initial value) After 1 hour: 23%
- Drop in glycaemia (in % of the initial value) After 2 hours: 29%

Structure (SMILES): O=C(O)CCC(=O)c1ccc(OCCN2CCN(c3cccc(F)c3)CC2)cc1 [Compound 4]
- Drop in glycaemia (in % of the initial value) After 1 hour: 9%
- Drop in glycaemia (in % of the initial value) After 2 hours: 20%

Structure (SMILES): O=C(O)CCC(=O)c1ccc(OCCN2CCN(c3ccc(F)cc3)CC2)cc1 [Compound 5]
- Drop in glycaemia (in % of the initial value) After 1 hour: 5%
- Drop in glycaemia (in % of the initial value) After 2 hours: 23%

Structure (SMILES): O=C(O)CCC(=O)c1ccc(OCCN2CCN(c3ccccn3)CC2)cc1 [Compound 10]
- Drop in glycaemia (in % of the initial value) After 1 hour: 23%
- Drop in glycaemia (in % of the initial value) After 2 hours: 39%

Structure (SMILES): COc1cccc(N2CCN(CCOc3ccc(C(=O)CCC(=O)O)cc3)CC2)c1 [Compound 12]
- Drop in glycaemia (in % of the initial value) After 1 hour: 19%
- Drop in glycaemia (in % of the initial value) After 2 hours: 32%

Structure (SMILES): CN(C)C(=N)N=C(N)N [Metformin, reference compound]
- Drop in glycaemia (in % of the initial value) After 1 hour: 22%
- Drop in glycaemia (in % of the initial value) After 2 hours: 27%
